Measurements: ChEMBL document CHEMBL1201862, “PubChem BioAssay data set” (2004)
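Five compound concentrations were applied to cells in 96-well plates for 48 hours; endpoints were derived by simple linear interpolation of the resulting dose-response curve. Abbreviation: GI50, concentration required for 50% inhibition of growth.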 The source made the active and inactive calls. No stated cut-off is given here; in the data, active = GI50 up to about 1.1 µM and inactive = higher.

How the values were obtained:
Assay in all cases: NCI tumour cell line growth inhibition, 48 h
[1] = tested on: ACHN
[2] = tested on: CAKI-1
[3] = tested on: COLO 205
[4] = tested on: HL-60
[5] = tested on: LOX IMVI
[6] = tested on: M14
[7] = tested on: MOLT-4
[8] = tested on: NCI-H23
[9] = tested on: OVCAR-3
[10] = tested on: OVCAR-8
[11] = tested on: SF-539
[12] = tested on: SNB-75
[13] = tested on: SW-620
[14] = tested on: TK-10
[15] = tested on: UO-31
[16] = tested on: NCI-H460

Measured: GI50

CC1(C)C(c2ccccc2)C12CCC1(C2=O)C(c2ccccc2)C1(C)C (centres undefined)
inactive: [1] 19.6 µM | [2] 23.1 µM | [3] 18.8 µM | [4] 20.1 µM | [5] 20.2 µM | [6] 23.3 µM | [7] 18.9 µM | [8] 18.9 µM | [9] 19.9 µM | [10] 34.1 µM | [11] 26.8 µM | [12] 30.4 µM | [13] 21.7 µM | [14] 34.5 µM | [15] 19.9 µM

O=C1c2cccc3cc([N+](=O)[O-])cc(c23)C(=O)N1NC1=NCCN1
inactive: [1] > 100 µM | [2] > 100 µM | [3] > 100 µM | [4] > 100 µM | [5] > 100 µM | [6] > 100 µM | [7] > 100 µM | [8] > 100 µM | [16] > 100 µM | [9] > 100 µM | [10] > 100 µM | [11] > 100 µM | [12] > 100 µM | [13] > 100 µM | [14] > 100 µM | [15] > 100 µM

C=CCOCCCCC(C(C)=O)C(=O)OC (centres undefined)
inactive: [1] > 100 µM | [2] > 100 µM | [3] > 100 µM | [4] > 100 µM | [5] > 100 µM | [6] > 100 µM | [7] > 100 µM | [8] > 100 µM | [16] > 100 µM | [9] > 100 µM | [10] > 100 µM | [11] > 100 µM | [12] > 100 µM | [13] > 100 µM | [14] > 100 µM | [15] > 100 µM

Cc1cc(Cl)ccc1NC(=O)CC1SC(N)=NC1=O (centres undefined)
inactive: [1] > 100 µM | [2] > 100 µM | [3] > 100 µM | [4] > 100 µM | [5] > 100 µM | [6] > 100 µM | [7] > 100 µM | [8] > 100 µM | [16] > 100 µM | [9] > 100 µM | [10] > 100 µM | [11] > 100 µM | [12] > 100 µM | [13] > 100 µM | [14] > 100 µM | [15] > 100 µM

Cc1ccc(NC(=O)C2C3C=CC(O3)C2C(=O)O)cc1 (centres undefined)
inactive: [1] > 100 µM | [3] 45 µM | [4] 61.5 µM | [5] 23.7 µM | [6] > 100 µM | [7] > 100 µM | [8] > 100 µM | [16] > 100 µM | [9] > 100 µM | [10] > 100 µM | [11] > 100 µM | [12] > 100 µM | [13] 8.83 µM | [14] > 100 µM | [15] > 100 µM

Nc1nc2ncn(CCO)c2c(=S)[nH]1
inactive: [1] > 100 µM | [2] > 100 µM | [3] > 100 µM | [4] > 100 µM | [5] > 100 µM | [6] > 100 µM | [16] > 100 µM | [9] > 100 µM | [10] > 100 µM | [11] > 100 µM | [12] > 100 µM | [13] > 100 µM | [14] > 100 µM | [15] > 100 µM

CC(C)CC(=O)N1CCN(C(=O)CC(C)C)c2ccccc21
inactive: [1] > 100 µM | [3] > 100 µM | [4] > 100 µM | [5] > 100 µM | [7] > 100 µM | [8] > 100 µM | [16] > 100 µM | [9] > 100 µM | [10] > 100 µM | [11] > 100 µM | [12] > 100 µM | [13] > 100 µM | [14] > 100 µM | [15] > 100 µM

O=C1[C@@H](c2ccc(Cl)cc2)[C@H]2CC=C[C@H]2N1O
inactive: [2] > 100 µM | [3] > 100 µM | [4] > 100 µM | [5] > 100 µM | [6] > 100 µM | [7] 66.1 µM | [8] > 100 µM | [9] > 100 µM | [10] > 100 µM | [11] > 100 µM | [12] > 100 µM | [13] > 100 µM | [14] > 100 µM | [15] 89.7 µM

O=[N+]([O-])c1ccccc1[S+]([O-])c1ccccc1 (centres undefined)
inactive: [1] 69.7 µM | [2] 60.4 µM | [4] 27.7 µM | [5] 21.1 µM | [6] > 100 µM | [7] 57 µM | [8] 44.5 µM | [16] 53 µM | [9] 73.8 µM | [10] > 100 µM | [11] 70.6 µM | [12] 22.1 µM | [13] > 100 µM | [14] > 100 µM | [15] 63.5 µM

CC1=C2C(c3ccccc3)(c3ccccc3)C3C=CC2(C=N3)N(C(=O)NC2CCCCC2)C1=O (centres undefined)
inactive: [1] 19.5 µM | [2] 12.6 µM | [3] 15.9 µM | [4] 14.7 µM | [5] 15.7 µM | [6] 17.5 µM | [7] 17.4 µM | [8] 18.4 µM | [9] 14.8 µM | [10] 17.9 µM | [11] 15.9 µM | [13] 17.3 µM | [15] 14.3 µM

CCNC1=Nc2ccc(Cl)cc2C(c2ccccc2)=NN1
inactive: [1] 31.7 µM | [2] 15 µM | [3] 16.3 µM | [4] 22.3 µM | [5] 18.9 µM | [6] 17.3 µM | [7] 25.2 µM | [8] 27.5 µM | [9] 17.5 µM | [10] 26.8 µM | [11] 19.8 µM | [12] 19 µM | [13] 18 µM | [14] 28.4 µM | [15] 30.2 µM

CSc1nc2c(c(O)c(C)c(=O)n2C2OC(COC(C)=O)C(OC(C)=O)C(OC(C)=O)C2OC(C)=O)c(=O)n1C (centres undefined)
inactive: [1] > 100 µM | [2] > 100 µM | [3] > 100 µM | [4] > 100 µM | [5] > 100 µM | [6] > 100 µM | [8] > 100 µM | [16] > 100 µM | [9] > 100 µM | [10] > 100 µM | [11] > 100 µM | [12] > 100 µM | [13] > 100 µM | [14] > 100 µM | [15] > 77.4 µM

C/C(CCn1[nH]c(=O)ccc1=O)=N\Nc1ccc([N+](=O)[O-])cc1[N+](=O)[O-]
inactive: [1] 90.8 µM | [2] > 100 µM | [4] > 100 µM | [5] 26.8 µM | [6] 26 µM | [7] > 100 µM | [8] > 100 µM | [16] 37 µM | [9] > 100 µM | [10] 93.1 µM | [11] 95.5 µM | [12] > 100 µM | [13] > 100 µM | [14] > 100 µM | [15] 12.7 µM

Cc1ccc(C2=C(c3ccccc3)C(O)(c3ccccc3)C(c3ccccc3)=C2c2ccc(C)cc2)cc1
inactive: [1] > 100 µM | [6] 83.8 µM | [7] 7.93 µM | [8] 69.3 µM | [16] > 100 µM | [10] > 100 µM | [11] > 100 µM | [12] > 100 µM | [13] > 100 µM | [14] 77.4 µM | [15] 78.7 µM

CC(C)(C)c1cc(-c2c3nc(c(-c4cc(C(C)(C)C)cc(C(C)(C)C)c4)c4ccc([nH]4)c(-c4cc(C(C)(C)C)cc(C(C)(C)C)c4)c4nc(c(-c5cc(C(C)(C)C)cc(C(C)(C)C)c5)c5ccc2[nH]5)C=C4)C=C3)cc(C(C)(C)C)c1
inactive: [1] > 100 µM | [2] > 100 µM | [3] > 100 µM | [4] > 100 µM | [5] > 100 µM | [6] > 100 µM | [7] > 100 µM | [8] > 100 µM | [16] > 100 µM | [9] > 100 µM | [10] > 100 µM | [11] > 100 µM | [12] > 100 µM | [13] > 100 µM | [14] > 100 µM | [15] > 100 µM

O=[N+]([O-])c1c(/C=N/c2ccccc2)oc(-c2ccc3c(c2)OCO3)c1-c1ccc2c(c1)OCO2
inactive: [1] > 100 µM | [2] > 100 µM | [3] > 100 µM | [4] > 100 µM | [5] > 100 µM | [6] > 100 µM | [7] > 100 µM | [8] > 100 µM | [16] > 100 µM | [9] > 100 µM | [10] > 100 µM | [11] > 100 µM | [12] 50.2 µM | [13] > 100 µM | [14] > 100 µM | [15] 9.29 µM

CN(C)c1ccc(Cc2cc(C(C)(C)C)cc(C(C)(C)C)c2O)cc1
inactive: [1] 16.6 µM | [2] 19.1 µM | [4] 21 µM | [5] 10.6 µM | [6] 18.1 µM | [7] 14.5 µM | [8] 16.1 µM | [16] 18.5 µM | [10] 20 µM | [11] 20.8 µM | [12] 31.2 µM | [13] 16.9 µM | [14] 13.2 µM | [15] 17.2 µM

c1ccc([B-]23Oc4ccccc4[NH+]2c2ccccc2O3)cc1 (centres undefined)
inactive: [1] 75.7 µM | [2] > 100 µM | [3] 49 µM | [4] 17.5 µM | [5] 62.2 µM | [6] > 100 µM | [7] 25.8 µM | [8] > 100 µM | [9] 56.6 µM | [10] 57.7 µM | [11] > 100 µM | [12] > 100 µM | [13] 33.2 µM | [14] 47.2 µM
